Data from US20070248705A1, “Agents for Activating the Transcription Factor Nrf2 and Foods Having Such Function” (KIRIN BEER KABUSHIKI KAISHA, priority 2004, published 2007).

Key:
CD36 = assay: Expression of genes controlled by Nrf2 in RAW264.7: CD36; type: cell-based, mouse; settings: RAW264.7, 25 μM, 20 hours
Description: (§1) A mouse macrophage cell line RAW264.7 was seeded on a φ60 mm dish (9×10^5 cells), 2 ml of a D-MEM medium (Invitrogen) supplemented with 10% fetal bovine serum (HyClone) and penicillin-streptomycin (100 units/ml and 100 μg/ml, respectively; Sigma) was added, and the dish was incubated at 37° C. in an atmosphere of 5% CO2 for 2 days. The medium was replaced with a fresh medium containing individual samples and incubation was continued for another 20 hours. Then, the total RNA was prepared using TRIzol (Invitrogen) and purified using a RNeasy Mini kit (Qiagen) and an RNase-free DNase set (Qiagen). Further, cDNA was synthesized from 5 μg of the purified total RNA using a Thermo Script RT-PCR system (Invitrogen), and the amount of mRNA expression of various genes was determined using a FastStart DNA Master SYBR Green I kit (Roche) and a Light Cycler (Roche).
(§2) The amount of expression of the various genes was corrected by the amount of expression of the housekeeping gene PO and calculated as a relative expression level (n=2, mean±standard deviation). […]

catalase 1 (CAT1) = assay: Expression of genes controlled by Nrf2 in RAW264.7: CAT1; type: cell-based, mouse; settings: RAW264.7, 25 μM, 20 hours
Description: as §1, §2

[1] = test system: thioredoxin reductase 1 (TXNRD1); assay: Expression of genes controlled by Nrf2 in RAW264.7: TXNRD1; type: cell-based, mouse; settings: RAW264.7, 25 μM, 20 hours
Description: as §1, §2

heme oxygenase 1 (HO1) = assay: Expression of genes controlled by Nrf2 in RAW264.7: HO1; type: cell-based, mouse; settings: RAW264.7, 25 μM, 20 hours
Description: as §1, §2

[2] = test system: glutathione S-transferase mu1 (GSTM1); assay: Expression of genes controlled by Nrf2 in RAW264.7: GSTM1; type: cell-based, mouse; settings: RAW264.7, 25 μM, 20 hours
Description: as §1, §2

[3] = test system: glutathione S-transferase pi2 (GSTP2); assay: Expression of genes controlled by Nrf2 in RAW264.7: GSTP2; type: cell-based, mouse; settings: RAW264.7, 25 μM, 20 hours
Description: as §1, §2

[4] = test system: glutamate cysteine ligase modifier subunit (GCLM); assay: Expression of genes controlled by Nrf2 in RAW264.7: GCLM; type: cell-based, mouse; settings: RAW264.7, 25 μM, 20 hours
Description: as §1, §2

[5] = test system: glucose-6-phosphate dehydrogenase 2 (G6PD2); assay: Expression of genes controlled by Nrf2 in RAW264.7: G6PD2; type: cell-based, mouse; settings: RAW264.7, 25 μM, 20 hours
Description: as §1, §2

[6] = test system: glucose-6-phosphate dehydrogenase, X-linked (G6PDX); assay: Expression of genes controlled by Nrf2 in RAW264.7: G6PDX; type: cell-based, mouse; settings: RAW264.7, 25 μM, 20 hours
Description: as §1, §2

[7] = test system: mouse macrophage cell line RAW264.7; assay: Amount of intracellular glutathione; type: cell-based; settings: RAW264.7, 25 μM, 20 hours
Description: A mouse macrophage cell line RAW264.7 was seeded on a φ60 mm dish (7×10^5 cells), 2 ml of a D-MEM medium (Invitrogen) supplemented with 10% fetal bovine serum (HyClone) and penicillin-streptomycin (100 units/ml and 100 μg/ml, respectively; Sigma) was added, and the dish was incubated at 37° C. in an atmosphere of 5% CO2 for 2 days. The medium was replaced with a fresh medium containing individual samples and incubation was continued for another 20 hours. The samples added were isohumulone (IH(F)) and isohumulone (IcH(G)) at a concentration of 25 μM. The cells were recovered, broken by ultrasonication, and centrifuged to obtain the supernatant, and the amount of the total intracellular glutathione was measured using a glutathione assay kit (Cayman Chemical) (n=2, mean±standard deviation). As a positive control, 15dPGJ2 (Cayman Chemical) was used.

[8] = test system: mouse macrophage cell line RAW264.7; assay: Suppressive action on cell death by hydrogen peroxide; type: cell-based; settings: RAW264.7, 25 μM, 2 hours
Description: A mouse macrophage cell line RAW264.7 (6×10^4 cells/well) was incubated on a 96-well plate in 100 μl of a D-MEM medium (Invitrogen) containing individual samples, 10% fetal bovine serum (HyClone), and penicillin-streptomycin (100 units/ml and 100 μg/ml, respectively; Sigma) at 37° C. in an atmosphere of 5% CO2 overnight. The samples added were isohumulone (IH(F)) and isohumulone (IcH(G)) at a concentration of 25 μM. Hydrogen peroxide (Wako Pure Chemical Industries) was added hereto at a final concentration of 0.8 or 1.0 mM and incubation was continued for another 2 hours. Then, adsorption at 440 nm was measured using a microplate reader (Power Wave 200, Bio-Tek Instruments) with a cell growth reagent WST-1 (Roche Diagnostics). The cell survival rate for each sample was calculated by setting the value without hydrogen peroxide as 100% (n=2, mean±standard variation). As a positive control, 15dPGJ2 (Cayman Chemical) was used.

SMILES: CC(C)=CCC(=O)C1(O)C(O)=C(C(=O)CC(C)C)C(=O)C1CC=C(C)C (stereo not drawn) [IH (F), isohumulone]
- expression of CD36 (CD36): augmented the expression
- expression of CAT1 (catalase 1 (CAT1)): augmented the expression
- expression of TRNRD1 [1]: augmented the expression
- expression of HO1 (heme oxygenase 1 (HO1)): augmented the expression
- expression of GSTM1 [2]: augmented the expression
- expression of GSTP2 [3]: augmented the expression
- expression of GCLM [4]: augmented the expression
- expression of G6PD2 [5]: augmented the expression
- expression of G6PDX [6]: augmented the expression
- amount of the total intracellular glutathione [7]: Increased the amount of the total intracellular glutathione
- cell death by hydrogen peroxide (cell survival rate) ([8]; hydrogen peroxide 0.8 mM): suppressed cell death
- cell death by hydrogen peroxide (cell survival rate) ([8]; hydrogen peroxide 1.0 mM): suppressed cell death
